Measurements reported in patent US12421210B2, “Fused bicyclic heterocycles as therapeutic agents” (NEW YORK UNIVERSITY, priority 2018, dated 2025).
Where two headings read alike, the source gives them in different places.

Biological target: human NAMPT enzyme (His-hNAMPT) (Homo sapiens (Human), UniProt P43490)
Assay: NAMPT enzymatic inhibition assay (fluorescence, NADH product)
Type: biochemical
[1] = [BPS], read-out: NAMPT IC50 (μM) [BPS]
[2] = [HDB], read-out: NAMPT IC50 (μM) [HDB]

human NAMPT enzyme (His-hNAMPT), sequence (P43490 whole entry): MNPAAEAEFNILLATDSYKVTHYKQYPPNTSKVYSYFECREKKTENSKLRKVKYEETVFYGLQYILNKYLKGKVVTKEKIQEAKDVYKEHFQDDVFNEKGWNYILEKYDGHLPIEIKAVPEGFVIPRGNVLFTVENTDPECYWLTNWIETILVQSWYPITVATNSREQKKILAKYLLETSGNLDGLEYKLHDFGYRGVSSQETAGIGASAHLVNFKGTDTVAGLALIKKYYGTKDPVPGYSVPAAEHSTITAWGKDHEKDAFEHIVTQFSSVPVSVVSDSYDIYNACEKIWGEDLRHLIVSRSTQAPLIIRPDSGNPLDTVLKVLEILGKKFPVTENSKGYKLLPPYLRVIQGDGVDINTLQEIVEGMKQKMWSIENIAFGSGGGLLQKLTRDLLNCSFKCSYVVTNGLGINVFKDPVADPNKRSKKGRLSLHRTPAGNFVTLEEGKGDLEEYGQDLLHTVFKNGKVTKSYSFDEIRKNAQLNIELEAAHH

Cc1nc(C)c(C(=O)N2C[C@@H]3[C@@H](CCNC(=O)c4cc5cnccc5[nH]4)[C@@H]3C2)o1 [Example 113, N-(2-((1R,5S,6s)-3-(2,4-dimethyloxazole-5-carbonyl)-3-azabicyclo[3.1.0]hexan-6-yl)ethyl)-1H-pyrrolo[3,2-c]pyridine-2-carboxamide]
IC50 [1]: 0.01 to 0.49 µM

Cc1nc(C)c(C(=O)N2C[C@@H]3[C@@H](CCNC(=O)c4cc5ccncc5s4)[C@@H]3C2)o1 [Example 114, N-(2-((1R,5S,6s)-3-(2,4-dimethyloxazole-5-carbonyl)-3-azabicyclo[3.1.0]hexan-6-yl)ethyl)thieno[2,3-c]pyridine-2-carboxamide]
IC50 [2]: 0.01 to 0.49 µM

NC(=O)c1cccc(C(=O)N2C[C@@H]3[C@@H](CCNC(=O)/C=C/c4cccnc4)[C@@H]3C2)c1 [Example 115, 3-((1R,5S,6s)-6-(2-((E)-3-(pyridin-3-yl)acrylamido)ethyl)-3-azabicyclo[3.1.0]hexane-3-carbonyl)benzamide]
IC50 [2]: < 0.01 µM

NC(=O)c1cccc(C(=O)N2C[C@@H]3[C@@H](CCNC(=O)c4cc5cnccc5[nH]4)[C@@H]3C2)c1 [Example 116, N-(2-((1R,5S,6s)-3-(3-carbamoylbenzoyl)-3-azabicyclo[3.1.0]hexan-6-yl)ethyl)-1H-pyrrolo[3,2-c]pyridine-2-carboxamide]
IC50 [2]: 0.01 to 0.49 µM

O=C(/C=C/c1cccnc1)NCC[C@@H]1[C@H]2CN(c3ccccc3)C[C@@H]12 [Example 117, (E)-N-(2-((1R,5S,6s)-3-phenyl-3-azabicyclo[3.1.0]hexan-6-yl)ethyl)-3-(pyridin-3-yl)acrylamide]
IC50 [1]: 0.01 to 0.49 µM

O=C(NCC[C@@H]1[C@H]2CN(c3ncccn3)C[C@@H]12)c1ccc2nccn2c1 [Example 118, N-(2-((1R,5S,6s)-3-(pyrimidin-2-yl)-3-azabicyclo[3.1.0]hexan-6-yl)ethyl)imidazo[1,2-a]pyridine-6-carboxamide]
IC50 [1]: 0.01 to 0.49 µM

O=C(NCC[C@@H]1[C@H]2CN(c3ncccn3)C[C@@H]12)c1cc2ccncc2o1 [Example 119, N-(2-((1R,5S,6s)-3-(pyrimidin-2-yl)-3-azabicyclo[3.1.0]hexan-6-yl)ethyl)furo[2,3-c]pyridine-2-carboxamide]
IC50 [1]: 0.01 to 0.49 µM

O=C(NCC[C@@H]1[C@H]2CN(c3nc4ccccc4s3)C[C@@H]12)c1cc2ccncc2o1 [Example 120, N-(2-((1R,5S,6s)-3-(benzo[d]thiazol-2-yl)-3-azabicyclo[3.1.0]hexan-6-yl)ethyl)furo[2,3-c]pyridine-2-carboxamide]
IC50 [1]: 0.01 to 0.49 µM

O=C(NCC[C@@H]1[C@H]2CN(c3cccc4ccccc34)C[C@@H]12)c1cc2ccncc2o1 [Example 121, N-(2-((1R,5S,6s)-3-(naphthalen-1-yl)-3-azabicyclo[3.1.0]hexan-6-yl)ethyl)furo[2,3-c]pyridine-2-carboxamide]
IC50 [1]: 0.01 to 0.49 µM

O=C(NCC[C@@H]1[C@H]2CN(c3ncc4ccccc4n3)C[C@@H]12)c1cc2ccncc2o1 [Example 122, N-(2-((1R,5S,6s)-3-(quinazolin-2-yl)-3-azabicyclo[3.1.0]hexan-6-yl)ethyl)furo[2,3-c]pyridine-2-carboxamide]
IC50 [1]: 0.01 to 0.49 µM

O=C(/C=C/c1cccnc1)NCC[C@@H]1[C@H]2CN(c3ncccn3)C[C@@H]12 [Example 123, (E)-3-(pyridin-3-yl)-N-(2-((1R,5S,6s)-3-(pyrimidin-2-yl)-3-azabicyclo[3.1.0]hexan-6-yl)ethyl)acrylamide]
IC50 [1]: 0.01 to 0.49 µM

O=C(/C=C/c1cccnc1)NCC[C@@H]1[C@H]2CN(c3nc4ccccc4s3)C[C@@H]12 [Example 124, (E)-N-(2-((1R,5S,6s)-3-(benzo[d]thiazol-2-yl)-3-azabicyclo[3.1.0]hexan-6-yl)ethyl)-3-(pyridin-3-yl)acrylamide]
IC50 [1]: 0.01 to 0.49 µM

O=C(/C=C/c1cccnc1)NCC[C@@H]1[C@H]2CN(c3ncc4ccccc4n3)C[C@@H]12 [Example 125, (E)-3-(pyridin-3-yl)-N-(2-((1R,5S,6s)-3-(quinazolin-2-yl)-3-azabicyclo[3.1.0]hexan-6-yl)ethyl)acrylamide]
IC50 [1]: 0.01 to 0.49 µM

O=C(/C=C/c1cccnc1)NCC[C@@H]1[C@H]2CN(c3cccc4ccccc34)C[C@@H]12 [Example 126, (E)-N-(2-((1R,5S,6s)-3-(naphthalen-1-yl)-3-azabicyclo[3.1.0]hexan-6-yl)ethyl)-3-(pyridin-3-yl)acrylamide]
IC50 [1]: 0.01 to 0.49 µM

O=C(/C=C/c1cccnc1)NCC[C@@H]1[C@H]2CN(c3ccc4ccccc4c3)C[C@@H]12 [Example 127, (E)-N-(2-((1R,5S,6s)-3-(naphthalen-2-yl)-3-azabicyclo[3.1.0]hexan-6-yl)ethyl)-3-(pyridin-3-yl)acrylamide]
IC50 [1]: 0.01 to 0.49 µM

O=C(/C=C/c1cccnc1)NCC[C@@H]1[C@H]2CN(c3cccc(F)c3)C[C@@H]12 [Example 128, (E)-N-(2-((1R,5S,6s)-3-(3-fluorophenyl)-3-azabicyclo[3.1.0]hexan-6-yl)ethyl)-3-(pyridin-3-yl)acrylamide]
IC50 [1]: 0.01 to 0.49 µM

COc1cccc(N2C[C@@H]3[C@@H](CCNC(=O)/C=C/c4cccnc4)[C@@H]3C2)c1 [Example 129, (E)-N-(2-((1R,5S,6s)-3-(3-methoxyphenyl)-3-azabicyclo[3.1.0]hexan-6-yl)ethyl)-3-(pyridin-3-yl)acrylamide]
IC50 [1]: 0.01 to 0.49 µM

COc1cccc(N2C[C@@H]3[C@@H](CCNC(=O)c4cc5ccncc5o4)[C@@H]3C2)c1 [Example 130, N-(2-((1R,5S,6s)-3-(3-methoxyphenyl)-3-azabicyclo[3.1.0]hexan-6-yl)ethyl)furo[2,3-c]pyridine-2-carboxamide]
IC50 [1]: 0.01 to 0.49 µM

O=C(NCC[C@@H]1[C@H]2CN(c3ncccn3)C[C@@H]12)c1cc(-c2cccnc2)on1 [Example 131, 5-(pyridin-3-yl)-N-(2-((1R,5S,6s)-3-(pyrimidin-2-yl)-3-azabicyclo[3.1.0]hexan-6-yl)ethyl)isoxazole-3-carboxamide]
IC50 [1]: 0.01 to 0.49 µM

Cc1ccccc1N1C[C@@H]2[C@@H](CCNC(=O)/C=C/c3cccnc3)[C@@H]2C1 [Example 132, (E)-3-(pyridin-3-yl)-N-(2-((1R,5S,6s)-3-(o-tolyl)-3-azabicyclo[3.1.0]hexan-6-yl)ethyl)acrylamide]
IC50 [1]: 0.01 to 0.49 µM

Cc1cccc(C)c1N1C[C@@H]2[C@@H](CCNC(=O)/C=C/c3cccnc3)[C@@H]2C1 [Example 133, (E)-N-(2-((1R,5S,6s)-3-(2,6-dimethylphenyl)-3-azabicyclo[3.1.0]hexan-6-yl)ethyl)-3-(pyridin-3-yl)acrylamide]
IC50 [1]: 0.01 to 0.49 µM

O=C(NCC[C@@H]1[C@H]2CN(c3ccccc3)C[C@@H]12)c1cc(-c2cccnc2)on1 [Example 134, N-(2-((1R,5S,6s)-3-phenyl-3-azabicyclo[3.1.0]hexan-6-yl)ethyl)-5-(pyridin-3-yl)isoxazole-3-carboxamide]
IC50 [2]: < 0.01 µM

N#Cc1ccccc1N1C[C@@H]2[C@@H](CCNC(=O)/C=C/c3cccnc3)[C@@H]2C1 [Example 135, (E)-N-(2-((1R,5S,6s)-3-(2-cyanophenyl)-3-azabicyclo[3.1.0]hexan-6-yl)ethyl)-3-(pyridin-3-yl)acrylamide]
IC50 [2]: 0.01 to 0.49 µM

N#Cc1cccc(N2C[C@@H]3[C@@H](CCNC(=O)/C=C/c4cccnc4)[C@@H]3C2)c1 [Example 136, (E)-N-(2-((1R,5S,6s)-3-(3-cyanophenyl)-3-azabicyclo[3.1.0]hexan-6-yl)ethyl)-3-(pyridin-3-yl)acrylamide]
IC50 [2]: < 0.01 µM
